Measured values reported in US20240400620A1, “Compositions Containing Coronavirus Proteins and Epitopes” (priority 2021, published 2024).
Like-named read-outs stand apart in the source and are kept apart here. No end group written: not given here.

Experiments:
[1] = test system: activated (CD44+ CD62L−) CD8+ T cells from B.1.351-infected HLA-B*0702 Ifnar1^−/− mice; type: cell-based
[2] = test system: activated CD4+ T cells from OC43-infected HLA-DRB1*0101 Ifnar1^−/− mice; type: cell-based; conditions: for expansion of peptide-reactive IFNγ+ CD4+ T cells: day 8 post-OC43 infection
[3] = test system: splenocytes or lung leukocytes (IFNγ-producing peptide-specific T cells) from DNA-vaccinated HLA-B*0702 mice; test: IFNγ-ELISpot, cells of DNA-vaccinated HLA-B*0702 Ifnar1^−/− mice stimulated with SARS-CoV-2 peptides; type: cell-based; conditions: 20 h; for IFNγ production (ELISpot) compared with unstimulated control cells: splenocytes, day 21, 10 μg/mL peptide; for IFNγ secretion (ELISpot): lung leukocytes, 10 μg/mL peptide
[4] = test system: splenocytes or lung leukocytes from DNA-vaccinated HLA-DRB1*0101 mice; type: cell-based; conditions: for stimulation of IFNγ production (ELISpot): splenocytes
SARS-CoV-2 B.1.351 = conditions: mouse, in vivo
[5] = test system: activated CD8+ T cells from OC43-infected HLA-B*0702 Ifnar1^−/− mice; type: cell-based; conditions: splenocytes
[6] = spleen, day 16 post-OC43 infection

In the case of “LPKEITVAT (misc_feature - Membrane; Severe acute respiratory syndrome-related coronavirus) [M164-172]”, the “frequencies of activated IFNγ+, IFNγ+/TNF+, IFNγ+/CD107a+ and IFNγ+/TNF+/IL-2+ CD8+ T cells compared with unstimulated cultures” value [1] is reported as “no significant expansion”.

For RCSFYEDFLEYHDVR [ORF8101-115], the “frequencies of cross-reactive IFNγ+ CD4+ T cells” value [2] was “significantly increased”.

“SPRRARSV (misc_feature - Spike; Severe acute respiratory syndrome-related coronavirus) [S680-687]” was tested, and the “IFNγ production (ELISpot) compared with unstimulated control cells” value [3] was “significantly higher levels of IFNγ”.

“PKEITVATSRTLSYY (misc_feature - Membrane; Severe acute respiratory syndrome-related coronavirus) [M165-179]” was tested, and the “stimulation of IFNγ production (ELISpot)” value [4] was “significant stimulation of IFNγ production”.

For “FPRGQGVPIN (misc_feature - Nucleoprotein; Severe acute respiratory syndrome-related coronavirus) [N66-75]”, the “IFNγ secretion (ELISpot)” value [3] was “significant IFNγ secretion” and the “IFNγ production (ELISpot) compared with unstimulated control cells” value [3] was “significantly higher levels of IFNγ”.

In the case of “KFPRGQGVPI (misc_feature - Nucleoprotein; Severe acute respiratory syndrome-related coronavirus) [N65-74]”, the “IFNγ secretion (ELISpot)” value [3] is reported as “significant IFNγ secretion” and the “IFNγ production (ELISpot) compared with unstimulated control cells” value [3] is reported as “significantly higher levels of IFNγ”.

“SPRWYFYYLG (misc_feature - Nucleoprotein; Severe acute respiratory syndrome-related coronavirus) [N105-114]” was tested, and the “IFNγ production (ELISpot) compared with unstimulated control cells” value [3] was “significantly higher levels of IFNγ”.

For “FPRGQGVPINT (misc_feature - Nucleoprotein; Severe acute respiratory syndrome-related coronavirus) [N66-76]”, the “IFNγ secretion (ELISpot)” value [3] was “significant IFNγ secretion”, the “IFNγ production (ELISpot) compared with unstimulated control cells” value [3] was “significantly higher levels of IFNγ” and the “frequencies of activated IFNγ+, IFNγ+/TNF+, IFNγ+/CD107a+ and IFNγ+/TNF+/IL-2+ CD8+ T cells compared with unstimulated cultures” value [1] was “no significant expansion”.

“LKFPRGQGVPI (misc_feature - Nucleoprotein; Severe acute respiratory syndrome-related coronavirus) [N64-74]” was tested, and the “IFNγ secretion (ELISpot)” value [3] was “significant IFNγ secretion” and the “IFNγ production (ELISpot) compared with unstimulated control cells” value [3] was “significantly higher levels of IFNγ”.

In the case of “VPVAIHADQL (misc_feature - Spike; Severe acute respiratory syndrome-related coronavirus) [S620-629]”, the “IFNγ production (ELISpot) compared with unstimulated control cells” value [3] is reported as “significantly higher levels of IFNγ”.

For TSNFRVQPTESIVRF [S315-329], the “stimulation of IFNγ response (ELISpot)” value ([4]; lung leukocytes) was “significantly stimulated a response”, the “stimulation of IFNγ production (ELISpot)” value [4] was “significant stimulation of IFNγ production” and the “IFNγ response (ELISpot)” value ([4]; splenocytes and lung leukocytes) was “capable of stimulating both splenocytes and lung leukocytes”.

LSPRWYFYYL [N104-113] was tested, and the “frequencies of N104-113-reactive polyfunctional (IFNγ+/TNF+, IFNγ+/TNF+/IL-2+) and cytotoxic multifunctional (IFNγ+/CD107a+) CD8+ T cells vs mock-immunized” value (SARS-CoV-2 B.1.351) was “significantly increased”.

With GSLVVRCSFYEDFLE [ORF896-110] the “frequencies of cross-reactive IFNγ+ CD4+ T cells” value [2, 6] was “significantly increased”.

In the case of LNTLVKQLSSNFGAI [S959-973], the “stimulation of IFNγ production (ELISpot)” value [4] is reported as “significant stimulation of IFNγ production”.

“TNSPRRARSVA (misc_feature - Spike; Severe acute respiratory syndrome-related coronavirus) [S678-688]” was tested, and the “IFNγ production (ELISpot) compared with unstimulated control cells” value [3] was “significantly higher levels of IFNγ” and the “frequencies of activated IFNγ+, IFNγ+/TNF+, IFNγ+/CD107a+ and IFNγ+/TNF+/IL-2+ CD8+ T cells compared with unstimulated cultures” value [1] was “no significant expansion”.

“SPRRARSVA (misc_feature - Spike; Severe acute respiratory syndrome-related coronavirus) [S680-688]” was tested, and the “IFNγ production (ELISpot) compared with unstimulated control cells” value [3] was “significantly higher levels of IFNγ”.

For APHGVVFL [S1056-1063], the “IFNγ secretion (ELISpot)” value [3] was “significant IFNγ secretion”, the “IFNγ production (ELISpot) compared with unstimulated control cells” value [3] was “significantly higher levels of IFNγ” and the “frequencies of activated IFNγ+, IFNγ+/TNF+, IFNγ+/CD107a+ and IFNγ+/TNF+/IL-2+ CD8+ T cells compared with unstimulated cultures” value [1] was “no significant expansion”.

With QSINFVRIIMRLWLC [ORF3a116-130] the “expansion of peptide-reactive IFNγ+ CD4+ T cells” value ([2]; spleen) was “statistically significant”.

For “LPKGIMMNV (misc_feature - ORF1ab; Severe acute respiratory syndrome-related coronavirus) [ORF1ab6834-6844]”, the “frequencies of activated IFNγ+ and IFNγ/TNF+ CD8+ T cells” value ([5]; day 8 post-OC43 infection) was “increase was significant”.

With “VLAAVYRINWITGGI (misc_feature - Membrane; Severe acute respiratory syndrome-related coronavirus) [M66-80]” the “expansion of peptide-reactive IFNγ+ CD4+ T cells” value ([2]; spleen) was “statistically significant”.

With “FARTRSMWSF (misc_feature - Membrane; Severe acute respiratory syndrome-related coronavirus) [M103-112]” the “frequencies of activated IFNγ+, IFNγ+/TNF+, IFNγ+/CD107a+ and IFNγ+/TNF+/IL-2+ CD8+ T cells compared with unstimulated cultures” value [1] was “no significant expansion”.

For “LSPRWYFYYLGTGPEAGL (misc_feature - Nucleocapsid; Severe acute respiratory syndrome-related coronavirus) [N104-121]”, the “expansion of peptide-reactive IFNγ+ CD8+ T cells” value ([5]; day 16 post-OC43 infection) was 9 fold and the “expansion of peptide-reactive IFNγ+/TNF+ CD8+ T cells” value ([5]; day 16 post-OC43 infection) was 12 fold.

With LYLYALVYFLQSINF [ORF3a106-120] the “IL-2 production by CD4+ T cells” value ([2]; day 16 post-OC43 infection) was “stimulated IL-2 production”.

“YYRRATRRIRGGDGK (misc_feature - Nucleoprotein; Severe acute respiratory syndrome-related coronavirus) [N86-100]” was tested, and the “IL-2 production by CD4+ T cells” value ([2]; day 16 post-OC43 infection) was “stimulated IL-2 production” and the “expansion of polyfunctional cross-reactive IFNγ+/TNF+ CD4+ T cells” value [2, 6] was “significantly expanded”.
